Measurements taken from ChEMBL document CHEMBL3045416, “Synthesis and biological evaluation of new curcumin derivatives as antioxidant and antitumor agents” (Med Chem Res, 2013).

Key:
[1] = Induction of Homo sapiens (human) RBC haemolysis at 2 ug/ml by spectrophotometric anlaysis; format: cell-based, Erythrocyte; conditions: red blood cells, read-out: Activity
[2] = Antioxidant activity assessed as inhibition of ABTS radical production at 1 mg/ml; format: functional
MCF7 = assay: Cytotoxicity against Homo sapiens (human) MCF7 cells assessed as cell viability at 20 ug/ml by trypan blue assay; format: functional; conditions: read-out: Activity
Vero = assay: Cytotoxicity against Chlorocebus aethiops (African green monkey) Vero cells assessed as cell viability at 20 ug/ml by trypan blue assay; format: functional; conditions: Chlorocebus sabaeus, read-out: Activity
WI-38 = assay: Cytotoxicity against Homo sapiens (human) WI38 cells assessed as cell viability at 20 ug/ml by trypan blue assay; format: functional; conditions: read-out: Activity
HepG2 = assay: Cytotoxicity against Homo sapiens (human) HepG2 cells assessed as cell viability at 20 ug/ml by trypan blue assay; format: functional; conditions: read-out: Activity
[3] = Antihaemolysis activity in Homo sapiens (human) RBC assessed as inhibition of ABTS-induced haemolysis at 20 ug/ml incubated for 30 min prior to ABTS-challenge by spectrophotometric analysis; format: functional; conditions: Erythrocyte
[4] = Antioxidant activity assessed as inhibition of ABTS radical production at 2 mM; format: functional

| Structure (SMILES) | hemolysis at 2 ug/ml [1] | inhibition [2] | viability at 20 µg/mL (MCF7) | viability at 20 µg/mL (Vero) | viability at 20 µg/mL (WI-38) | viability at 20 µg/mL (HepG2) | inhibition at 20 µg/mL [3] | inhibition [4] |
| --- | --- | --- | --- | --- | --- | --- | --- | --- |
| COc1ccc(/C=C2\CCCC3C2=NN(c2ccc(Br)cc2)C3c2ccc(OC)c(OC)c2)cc1OC (configuration not stated) | 100% | 0.19% | – | – | – | – | – | – |
| Brc1ccc(N2N=C3/C(=C/c4ccccc4)CCCC3C2c2ccccc2)cc1 (configuration not stated) | 100% | 1.74% | – | – | – | – | – | – |
| COc1ccc(/C=C2\CCCC3=C2OC(N)=C(C#N)C3c2ccc(OC)c(OC)c2)cc1OC (configuration not stated) | 100% | 16.9% | 21% | 65% | 12% | 19% | – | – |
| COc1ccc(OC)c(/C=C2\CCCC3=C2OC(N)=C(C#N)C3c2cc(OC)ccc2OC)c1 (configuration not stated) | – | 0.38% | – | – | – | – | – | – |
| COc1cc(/C=C2\CCCC3C2=NNC3c2ccc(O)c(OC)c2)ccc1O (configuration not stated) | – | 76.7% | 19% | 12% | 65% | 21% | – | – |
| COc1ccc(/C=C2\CCCC/C(=C\c3ccc(OC)cc3)C2=O)cc1 | 100% | 1.74% | – | – | – | – | – | – |
| COc1ccc(/C=C2\CCCC3=C2OC(N)=C(C#N)C3c2ccc(OC)cc2)cc1 (configuration not stated) | – | 0.38% | – | – | – | – | – | – |
| COc1ccc(OC)c(/C=C2\CCCC3C2=NN(c2ccc(Br)cc2)C3c2cc(OC)ccc2OC)c1 (configuration not stated) | 100% | 0.77% | – | – | – | – | – | – |
| CCOc1ccc(/C=C/C(=O)C(CC)(CC)C(=O)/C=C/c2ccc(OCC)c(OC)c2)cc1OC | – | 26.4% | 94% | 88% | 82% | 78% | – | – |
| COc1ccc(OC)c(/C=C/C(=O)C(C)(C)C(=O)/C=C/c2cc(OC)ccc2OC)c1 | 100% | 3.68% | 79% | 74% | 80% | 84% | – | – |
| COc1ccc(/C=C2\CCCCC3C2=NN(c2ccc(Br)cc2)C3c2ccc(OC)cc2)cc1 (configuration not stated) | 100% | – | – | – | – | – | – | – |
| CC(C)(C(=O)/C=C/c1ccc(O)cc1)C(=O)/C=C/c1ccc(O)cc1 | 100% | 28.7% | 64% | 82% | 88% | 57% | – | – |
| Clc1ccc(/C=C2\CCCC3C2=NN(c2ccc(Br)cc2)C3c2ccc(Cl)cc2)cc1 (configuration not stated) | 100% | 2.9% | – | – | – | – | – | – |
| CC(C)(C(=O)/C=C/c1ccccc1)C(=O)/C=C/c1ccccc1 | 100% | 4.84% | – | – | – | – | – | – |
| Oc1ccc(/C=C2\CCCC3C2=NNC3c2ccc(O)cc2)cc1 (configuration not stated) | – | 54.5% | 75% | 76% | 88% | 89% | – | – |
| COc1ccc(/C=C2\CCCC3C2=NN(c2ccc(Br)cc2)C3c2ccc(OC)cc2)cc1 (configuration not stated) | 100% | 5.03% | – | – | – | – | – | – |
| O=c1[nH]cc(F)c(=O)[nH]1 [FLUOROURACIL] | – | – | 0% | 0% | 0% | 0% | – | – |
| COc1ccc(/C=C2\CCC/C(=C\c3ccc(OC)cc3)C2=O)cc1 | 100% | 1.35% | – | – | – | – | – | – |
| COc1ccc(/C=C2\CCCCC3C2=NN(c2ccc(Br)cc2)C3c2ccc(OC)c(OC)c2)cc1OC (configuration not stated) | 100% | – | – | – | – | – | – | – |
| O=C1/C(=C/c2ccc(Cl)cc2)CCC/C1=C\c1ccc(Cl)cc1 | 100% | 0.58% | – | – | – | – | – | – |

| Structure (SMILES) | hemolysis at 2 ug/ml [1] | inhibition [2] | viability at 20 µg/mL (MCF7) | viability at 20 µg/mL (Vero) | viability at 20 µg/mL (WI-38) | viability at 20 µg/mL (HepG2) | inhibition at 20 µg/mL [3] | inhibition [4] |
| --- | --- | --- | --- | --- | --- | --- | --- | --- |
| COc1ccc(/C=C/C(=O)C(C)(C)C(=O)/C=C/c2ccc(OC)cc2)cc1 | 100% | 7.75% | – | – | – | – | – | – |
| COc1cc(/C=C2\CCC/C(=C\c3ccc(O)c(OC)c3)C2=O)ccc1O [CYCLOVALONE] | – | 74.2% | 32% | 69% | 58% | 28% | – | – |
| O=C1/C(=C/c2ccc(O)cc2)CCC/C1=C\c1ccc(O)cc1 | 100% | 9.49% | 74% | 84% | 77% | 88% | – | – |
| N#CC1=C(N)OC2=C(CCC/C2=C\c2ccc(Cl)cc2)C1c1ccc(Cl)cc1 (configuration not stated) | – | 1.55% | – | – | – | – | – | – |
| COc1ccc(OC)c(/C=C2\CCC/C(=C\c3cc(OC)ccc3OC)C2=O)c1 | 100% | 1.16% | – | – | – | – | – | – |
| COc1ccc(OC)c(/C=C2\CCCCC3C2=NN(c2ccc(Br)cc2)C3c2cc(OC)ccc2OC)c1 (configuration not stated) | 100% | – | – | – | – | – | – | – |
| COc1ccc(/C=C/C(=O)C(C)(C)C(=O)/C=C/c2ccc(OC)c(OC)c2)cc1OC | 100% | 12.6% | 87% | 89% | 75% | 78% | – | – |
| CC(C)(C(=O)/C=C/c1ccc(Cl)cc1)C(=O)/C=C/c1ccc(Cl)cc1 | 100% | 2.32% | – | – | – | – | – | – |
| COc1ccc(OC)c(/C=C2\CCCC/C(=C\c3cc(OC)ccc3OC)C2=O)c1 | 100% | 5.03% | – | – | – | – | – | – |
| COc1cc(/C=C/C(=O)C(C)(C)C(=O)/C=C/c2ccc(O)c(OC)c2)ccc1O | – | 52.9% | 55% | 82% | 78% | 47% | – | – |
| O=C1O[C@H]([C@@H](O)CO)C(O)=C1O [ASCORBIC ACID] | – | – | – | – | – | – | 17.6% | 80.8% |
| COc1ccc(/C=C2\CCCC/C(=C\c3ccc(OC)c(OC)c3)C2=O)cc1OC | 100% | 0.77% | – | – | – | – | – | – |
| COc1ccc(/C=C2\CCC/C(=C\c3ccc(OC)c(OC)c3)C2=O)cc1OC | 100% | 0% | – | – | – | – | – | – |
| COc1ccc(OC)c(/C=C2\CCCC3C2=NNC3c2cc(OC)ccc2OC)c1 (configuration not stated) | 100% | 25.6% | 82% | 67% | 100% | 78% | – | – |
| COc1cc(/C=C/C(=O)CC(=O)/C=C/c2ccc(O)c(OC)c2)ccc1O [CURCUMIN] | – | 87.6% | 19% | 24% | 51% | 18% | – | – |
| N#CC1=C(N)OC2=C(CCC/C2=C\c2ccccc2)C1c1ccccc1 (configuration not stated) | – | 0.19% | – | – | – | – | – | – |
| COc1cc(/C=C2\CCCC3=C2OC(N)=C(C#N)C3c2ccc(O)c(OC)c2)ccc1O (configuration not stated) | 100% | 57.8% | 79% | 82% | 84% | 81% | – | – |
| O=C1/C(=C/c2ccccc2)CCC/C1=C\c1ccccc1 | – | 1.93% | – | – | – | – | – | – |
| N#CC1=C(N)OC2=C(CCC/C2=C\c2ccc(O)cc2)C1c1ccc(O)cc1 (configuration not stated) | 100% | 16.7% | 82% | 83% | 79% | 78% | – | – |
